Read-outs that look alike come from different tables or passages of the source.
Assays:
Experiment in all cases: P450-Glo inhibition assay, recombinant CYP
Type in all cases: biochemical
CYP2D6 = molecular target: T1, CYP2D6 (Homo sapiens, UniProt P10635)
T1 construct: recombinant CYP450, commercial (Research Institute for Liver Diseases, Shanghai); P450-Glo Screening System (Promega)

CYP2C9 = molecular target: T2, CYP2C9 (Homo sapiens, UniProt P11712)
T2 construct: recombinant CYP450, commercial (Research Institute for Liver Diseases, Shanghai); P450-Glo Screening System (Promega)
T2 sequence (P11712 whole entry): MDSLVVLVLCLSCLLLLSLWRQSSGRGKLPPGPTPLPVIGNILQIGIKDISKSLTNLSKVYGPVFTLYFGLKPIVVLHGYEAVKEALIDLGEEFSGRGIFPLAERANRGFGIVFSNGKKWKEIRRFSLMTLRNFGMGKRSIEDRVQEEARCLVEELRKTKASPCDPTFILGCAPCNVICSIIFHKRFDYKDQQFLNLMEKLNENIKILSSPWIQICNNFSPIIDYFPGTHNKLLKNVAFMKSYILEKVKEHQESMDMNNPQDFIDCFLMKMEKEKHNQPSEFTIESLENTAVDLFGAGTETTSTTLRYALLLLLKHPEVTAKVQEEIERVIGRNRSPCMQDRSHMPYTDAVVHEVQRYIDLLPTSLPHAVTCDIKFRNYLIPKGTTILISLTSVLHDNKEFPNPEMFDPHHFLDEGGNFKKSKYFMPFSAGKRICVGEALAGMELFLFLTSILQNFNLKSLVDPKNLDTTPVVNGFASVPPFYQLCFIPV

CYP1A2 = molecular target: T3, CYP1A2 (Homo sapiens, UniProt P05177)
T3 construct: recombinant CYP450, commercial (Research Institute for Liver Diseases, Shanghai); P450-Glo Screening System (Promega)
T3 sequence (P05177 2-516): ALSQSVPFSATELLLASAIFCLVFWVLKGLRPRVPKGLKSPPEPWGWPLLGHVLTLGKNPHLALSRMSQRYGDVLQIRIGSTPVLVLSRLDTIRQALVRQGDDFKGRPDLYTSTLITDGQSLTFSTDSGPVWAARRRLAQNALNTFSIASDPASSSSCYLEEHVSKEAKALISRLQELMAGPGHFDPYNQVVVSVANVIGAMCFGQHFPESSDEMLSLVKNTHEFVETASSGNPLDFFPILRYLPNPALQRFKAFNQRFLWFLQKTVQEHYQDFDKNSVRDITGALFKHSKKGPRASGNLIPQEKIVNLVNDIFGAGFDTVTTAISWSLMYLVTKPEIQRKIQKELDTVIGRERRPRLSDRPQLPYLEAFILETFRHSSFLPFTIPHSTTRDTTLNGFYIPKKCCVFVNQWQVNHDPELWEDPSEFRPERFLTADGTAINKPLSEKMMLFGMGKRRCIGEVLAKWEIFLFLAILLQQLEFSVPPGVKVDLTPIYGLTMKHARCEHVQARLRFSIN

CYP2C19 = molecular target: T4, CYP2C19 (Homo sapiens, UniProt P33261)
T4 construct: recombinant CYP450, commercial (Research Institute for Liver Diseases, Shanghai); P450-Glo Screening System (Promega)
T4 sequence (P33261 whole entry): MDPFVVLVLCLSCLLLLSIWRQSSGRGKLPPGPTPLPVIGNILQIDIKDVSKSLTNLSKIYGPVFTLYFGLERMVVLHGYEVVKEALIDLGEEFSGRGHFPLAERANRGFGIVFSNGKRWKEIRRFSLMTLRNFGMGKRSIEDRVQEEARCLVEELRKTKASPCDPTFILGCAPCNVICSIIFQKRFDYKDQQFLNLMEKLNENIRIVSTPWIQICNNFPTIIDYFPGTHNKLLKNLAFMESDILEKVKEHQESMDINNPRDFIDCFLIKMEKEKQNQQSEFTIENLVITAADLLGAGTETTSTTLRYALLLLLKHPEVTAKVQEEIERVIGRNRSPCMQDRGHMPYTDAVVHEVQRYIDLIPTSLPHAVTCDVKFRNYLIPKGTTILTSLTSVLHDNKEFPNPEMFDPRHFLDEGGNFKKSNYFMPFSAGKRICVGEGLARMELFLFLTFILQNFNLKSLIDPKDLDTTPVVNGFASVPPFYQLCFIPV

CYP3A4 = molecular target: T5, CYP3A4 (Homo sapiens, UniProt P08684); settings: read-out: IC50 (μM) (95% Confidence Interval) / Isoimperatorin
T5 construct: recombinant CYP450, commercial (Research Institute for Liver Diseases, Shanghai); P450-Glo Screening System (Promega)
T5 sequence (P08684 2-503): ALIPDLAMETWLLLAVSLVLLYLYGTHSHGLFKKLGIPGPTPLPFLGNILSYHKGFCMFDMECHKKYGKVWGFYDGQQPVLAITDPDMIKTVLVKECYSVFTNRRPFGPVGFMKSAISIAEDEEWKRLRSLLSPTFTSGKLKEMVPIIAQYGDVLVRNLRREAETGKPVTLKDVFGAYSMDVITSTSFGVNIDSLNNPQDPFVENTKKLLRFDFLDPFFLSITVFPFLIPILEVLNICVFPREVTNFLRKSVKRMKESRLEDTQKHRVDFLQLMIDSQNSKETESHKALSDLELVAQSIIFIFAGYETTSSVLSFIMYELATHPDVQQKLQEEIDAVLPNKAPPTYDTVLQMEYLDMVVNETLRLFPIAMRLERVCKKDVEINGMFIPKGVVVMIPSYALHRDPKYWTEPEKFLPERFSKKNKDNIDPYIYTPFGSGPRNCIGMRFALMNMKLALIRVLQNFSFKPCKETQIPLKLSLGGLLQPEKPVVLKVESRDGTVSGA

[1] = read-out: IC50 (μM) (95% Confidence Interval) / Isoimperatorin

T1 sequence (P10635 whole entry): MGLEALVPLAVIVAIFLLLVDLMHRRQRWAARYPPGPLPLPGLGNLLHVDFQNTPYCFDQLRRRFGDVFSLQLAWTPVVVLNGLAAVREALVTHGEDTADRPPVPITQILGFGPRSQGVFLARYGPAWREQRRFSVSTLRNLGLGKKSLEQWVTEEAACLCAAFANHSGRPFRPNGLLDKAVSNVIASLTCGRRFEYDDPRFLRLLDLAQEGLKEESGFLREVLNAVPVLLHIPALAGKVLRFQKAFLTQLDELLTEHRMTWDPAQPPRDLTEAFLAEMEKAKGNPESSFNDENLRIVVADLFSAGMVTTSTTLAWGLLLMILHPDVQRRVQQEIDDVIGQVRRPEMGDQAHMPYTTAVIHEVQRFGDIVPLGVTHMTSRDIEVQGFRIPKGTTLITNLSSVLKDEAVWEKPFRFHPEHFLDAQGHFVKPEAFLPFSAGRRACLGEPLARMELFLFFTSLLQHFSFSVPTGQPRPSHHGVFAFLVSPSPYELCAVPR

IC50 (CYP2D6; [1])	IC50 (CYP2C9; [1])	IC50 (CYP1A2; [1])	IC50 (CYP3A4)	IC50 (CYP2C19; [1])	Structure (SMILES)	IC50 (CYP2D6)	IC50 (CYP2C9)	IC50 (CYP1A2)	IC50 (CYP2C19)
					CC(C)=CCOc1c2occc2cc2ccc(=O)oc12 [imperatorin]	9.1 µM	4.81 µM	0.08 µM	83.3 µM
1.56 µM	5.69 µM	8.26 µM	1.47 µM	19.6 µM	CC(C)=CCOc1c2ccoc2cc2oc(=O)ccc12 [isoimperatorin]				

Source: PMC6102536, “A Metabolism-Based Synergy for Total Coumarin Extract of Radix Angelicae Dahuricae and Ligustrazine on Migraine Treatment in Rats” (Molecules : A Journal of Synthetic Chemistry and Natural …, 2018)
